Results reported in patent US20240189294A1, “METHOD FOR REGULATING SEBACEOUS GLAND” (BUDDHIST TZU CHI MEDICAL FOUNDATION, priority 2021, published 2024).
“Also recorded” adds a separate entry of the source.

Tests used:
hair follicles = experiment: Topical application of CK1 inhibitors on shaved back skin of wild-type mice: hair growth phenotype and H&E staining (hair cycle phase); assay type: in vivo, C57BL/6J mice; conditions: topical 0.04 mg every other day, total 0.12 mg per 1 cm^2, mice 8 weeks old; for hair growth on the back skin (phenotype): three times, N=3, FIG. 5B; for hair cycle phase, H&E staining of back skin: FIG. 5C
Experimental: K14-Cr-ERT2-CK1α^fl/fl mice, Mc1r^549del mice and Mc1r^549del mice with CK1α ablation in keratinocytes (CK1α^−/−Mc1r^549del) were collaboratively generated in National Laboratory Animal Center (NLAC) in Tainan, Taiwan, and wild type C57BL/6J mice were also purchased from NLAC. Experiments and animal caring were performed in the Laboratory Animal Center, Tzu Chi University, Hualien, Taiwan, with the approval of Animal Care Committee in accordance with legal and ethical standards. Both male and female mice were used. The hair cycle in wild C57BL/6J mice is related to the age; weeks 4 to 6 are an anagen phase, weeks 6 to 7 are a catagen phase, and weeks 7 to 12 are a telogen phase.
A51 is a gift from Dr. Yinon Ben-Nerian's lab (which was published in Cell, Volume 175, Issue 1, 20 Sep. 2018, pages 171-185). For topical application onto mouse skin, 1 mg of CKI was dissolved in 6 μL dimethyl sulfoxide (DMSO) and mixed with 54 μL of vehicle which contained 60% of white wax and 40% of paraffin oil. The final working concentration is 0.1 mg/cm^2.
D4476 was purchased from Sigma Aldrich (#D1944). For topical application onto mouse skin, 4 mg of CKI was dissolved in 1 mL DMSO as the stock. 10 μL stock was mixed with 40 μL of vehicle which contained 60% of white wax and 40% of paraffin oil. The final working concentration is 0.04 mg/cm^2.
IC261 was purchased from Sigma Aldrich (#40090). For topical application onto mouse skin, 4 mg of CKI was dissolved in 1 mL DMSO as the stock. 10 μL stock was mixed with 40 μL of vehicle which contained 60% of white wax and 40% of paraffin oil. The final working concentration is 0.04 mg/cm^2.
(§1) Mice at 8 weeks old were shaved to remove hair on back skin and cleaned with 75% ethanol. Topical CKIs were applied on the back skin 3 times in one week, and the tissue was harvested on day 7, day 14 and some on day 28 after application of CKIs. The tissue was analyzed by the methods described below.
(§2) Skin samples were harvested at indicated timings for tissue analysis. Paraffin-embedded specimens were cut into 5-μm sections. After deparaffinization (with tissue slides being soaked in xylene three times, each time for 5 min) and rehydration (with slides being incubated in the following graded series of ethanol: 100%, 100%, 95%, 90% and 70%, 5 min each), the slides were rinsed with distilled water for 5 min.
For histopathology by H&E staining, skin tissues were fixed overnight in 10% neutral buffered formalin at 4° C. and then transferred to 70% ethanol before being processed and embedded in paraffin. Paraffin sections were then stained with H&E.

β-catenin = experiment: Immunohistochemical staining of β-catenin in back skin after topical CK1 inhibitor; assay type: in vivo, C57BL/6J mice; conditions: topical 0.04 mg every other day, total 0.12 mg per 1 cm^2, mice 8 weeks old; FIG. 5D
Experimental: as §1, §2
Paraffin sections were incubated in a humidity chamber for 15 min at 60° C. Sections were deparaffinized in two changes of xylene for 5 min each and hydrated in two changes of 100% ethanol for 5 min each, then in 95% and 80% ethanol for 5 min each, and finally rinsed in distilled water. Antigen retrieval was enhanced by microwaving the slides in a citrate buffer (DAKO; pH 6.0) for 20 min. Endogenous peroxidase activity was quenched with 3% hydrogen peroxide in methanol. After blocking, sections were incubated overnight at 4° C. with β-catenin antibody (1/100; BD Bioscience). Secondary antibodies used were horseradish peroxidase (HRP)-polymer anti-mouse antibodies (Nichirei). […]

[1] = system: hair follicle pigmentation; experiment: Fontana-Masson staining of hair follicle pigmentation after topical CK1 inhibitor; assay type: in vivo, C57BL/6J mice; conditions: topical 0.04 mg every other day, total 0.12 mg per 1 cm^2, mice 8 weeks old (telogen); FIG. 5E
Experimental: as §1, §2
Fontana-Masson staining and H&E staining were performed by using the kit from ScyTek Laboratories, Inc. according to the manufacturer's instructions.
Briefly, for Fontana-Masson staining, a freshly mixed ammoniacal silver solution was placed in a 58° C. to 60° C. water bath and allowed to equilibrate. The slides were incubated in a warmed ammoniacal silver solution for 30 to 60 min or until the tissue sections became yellow/brown in color, and were then rinsed with distilled water for 3 to 5 seconds (s). The slides were incubated in a gold chloride solution (0.2%) for 30 s and were then rinsed with distilled water for 3 to 5 s. […]

[2] = system: SZ95 cells (human sebocyte cell line); experiment: WST-1 assay in SZ95 cells; assay type: cell-based; conditions: 1.5×10^4 cells/well, treated for 24 hr, FIG. 8B
Experimental: SZ95 cells (human sebocyte cell line) were maintained in Sebomed basal Medium (Sigma) supplemented with 10% FBS and 5 ng/mL epidermal growth factor under standard cell culture conditions of 37° C. and 5% CO2.
WST-1 assay. Seeding cells with density 1.5×10^4 cells/well in 96-well plate, incubate overnight. Remove medium and add 100 μL fresh medium contain various amount of IC261 (1, 50, 100, 200, 500, 1000 nM) in each well, incubate for 24 hr. Add 10 μL/well WST-1, incubate for 4 hr. Measure the absorbance of OD 450 nm and OD 655 nm by ELISA reader.

PPARγ = experiment: Western blot of PPARγ in SZ95 cells; assay type: cell-based, human; conditions: IC261 at different concentrations vs DMSO, FIG. 8C
Experimental: (§3) For experiments involving tissues, the tissues were homogenized and lysed in 1× tissue protein extraction reagent (Thermo Fisher) containing protease inhibitor (Millipore) and kept on ice; for experiments involving cells, cell pellet was collected and lysed in 1×radioimmunoprecipitation assay (RIPA) lysis buffer containing protease inhibitor (Millipore) and kept on ice. The total protein concentration was determined using Protein Assay Dye Reagent Concentrate (Bio-Rad) following manufacturer's instruction with a microplate reader. Sample was diluted in SDS-PAGE Sample Buffer (Bio-Rad) and heated at 95° C. for 5 minutes. The protein sample was then resolved on SDS-PAGE gels (TGX FastCast acrylamide solutions, Bio-Rad) and transferred onto poly(vinylidene fluoride) (PVDF) membranes (Millipore). 5% BSA was used, and then the membranes were incubated with primary antibodies overnight at 4° C. The membranes were then washed by Tris-buffered saline with Tween 20 (TBST) and incubated with secondary antibodies for 1 hour at room temperature. The signal was detected using iBright FL1000 Imaging System from Thermo Fisher Scientific.
(§4) The antibodies used in immunohistochemistry (IHC) and Western blotting (WB) in this disclosure were listed in Table 1 below, where manufacturers, catalogue number and the dilution ratio used were provided. […]

c-Myc = experiment: Western blot of c-Myc in SZ95 cells; assay type: cell-based, human; conditions: IC261 at different concentrations vs DMSO, FIG. 8C
Experimental: as §3, §4

LC3B = experiment: Western blot of LC3B (autophagy marker) in SZ95 cells; assay type: cell-based, human; conditions: FIG. 8D
Experimental: as §3, §4

Structure (SMILES) | hair growth on the back skin (phenotype) (hair follicles) | hair cycle phase, H&E staining of back skin (hair follicles) | expression of β-catenin, immunohistochemical staining (β-catenin) | hair follicle pigmentation, Fontana-Masson staining [1] | IC50 [2] | PPARγ expression (biomarker for adipogenesis) (PPARγ) | c-Myc expression (biomarker for undifferentiated sebocytes) (c-Myc) | LC3B expression (marker for autophagy) (LC3B)
NC(=O)c1ccc(-c2nc(-c3ccc4c(c3)OCCO4)c(-c3ccccn3)[nH]2)cc1 [D4476] | significantly induced hair growth | induces an anagen phase of the hair cycle | increased the expression of β-catenin in the matrix of hair follicle | induce hair follicle growth and pigmented hair formation; also recorded: Heavily pigmented hair follicles and shafts |  |  |  | 
COc1cc(OC)c(C=C2C(O)=Nc3ccccc32)c(OC)c1 [IC261] | significantly induced hair growth | induces an anagen phase of the hair cycle | increased the expression of β-catenin in the matrix of hair follicle | induce hair follicle growth and pigmented hair formation; also recorded: Heavily pigmented hair follicles and shafts | ~476 nM | decreased | increased | increase with a dose dependent manner
